According to patent EP0328121A1, “Substituted hydrazine mitomycin analogs” (priority 1988, dated 1989):
Several values for one entry are separate records, joined by “and”; a condition that tells them apart may be missing. Equal values may be shown once. Read-outs that look alike come from different tables or passages of the source.

Test system: P-388 murine leukemia
Assay: Activity against P-388 murine leukemia (P-388 screen, survival of tumor-implanted mice)
Type: in vivo, CDF₁ female mice
Conditions: for minimal effective dose: Mus musculus, P388, ip; for activity against P-388 leukemia (in words): in vivo P-388 leukemia, compared to concurrently run mitomycin C controls
Procedure: The Table contains the results of laboratory tests with CDF₁ female mice implanted intraperitoneally with a tumor inoculum of 10⁶ ascites cells of P-388 murine leukemia and treated with various doses of either a test compound of this invention, or with mitomycin C. The compounds were administered by intraperitoneal injection. Groups of six mice were used for each dosage amount and they were treated with a single dose of the compound on the day of inoculation. A group of ten saline treated control mice was included in each series of experiments. The mitomycin C treated groups were included as a positive control. A 30-day protocol was employed with the mean survival time in days being determined for each group of mice and the number of survivors at the end of the 30-day period being noted.
The results were determined in terms of % T/C which is the ration of the mean survival time of the treated group to the mean survival time of the saline treated control group times 100. The saline treated control animals usually died within nine days. The "maximum effect" in the following Table is expressed as % T/C and the dose giving that effect is given in parentheses. The values in brackets are the values obtained with mitomycin C as the positive control in the same experiment. Thus, a measure of the relative activity of the present substances to mitomycin C can be estimated. A minimum effect in terms of % T/C was considered to be 125. The minimum effective dose (MED) reported in the following Table is that dose given a % T/C of approximately 125 or greater.

[1] = read-out: MED (minimum effective dose, %T/C≧125), P-388 leukemia ip, single ip dose on the day of inoculation, mitomycin C value in brackets from the same experiment

Structure (SMILES) | minimal effective dose [1] [mg/kg] | activity against P-388 leukemia (in words) | minimal effective dose (P-388 leukemia ip, single ip dose on the day of inoculation, mitomycin C value in brackets from the same experiment, read-out: MED (minimum effective dose, %T/C≧125)) [mg/kg] | MED (minimum effective dose, %T/C≧125) (P-388 leukemia ip, single ip dose on the day of inoculation, mitomycin C value in brackets from the same experiment)
CO[C@@]12[C@H](COC(N)=O)C3=C(C(O)=C(C)C(=NNC(=O)OC(C)(C)C)C3=O)N1C[C@@H]1N[C@@H]12 [VI] | 0.8 | – | – | –
CO[C@@]12[C@H](COC(N)=O)C3=C(C(O)=C(C)C(=NNC(=O)c4cccnc4)C3=O)N1C[C@@H]1N[C@@H]12 [III, 3-Pyridinecarboxylic acid, [1aS-(1aα, 8β, 8aα, 8bα)]-[8-[[(aminocarbonyl)-oxy]methyl]-1,1a,2,8,8a,8b-hexahydro-4-hydroxy-8a-methoxy-5-methyl-7-oxoazirino[2′,3′;3,4,]pyrrolo[1,2-a]indol-6(7H)-ylidene]hydrazide] | 12.8 | moderately active | – | –
CO[C@@]12[C@H](COC(N)=O)C3=C(C(O)=C(C)C(=NNC(=O)OCC4c5ccccc5-c5ccccc54)C3=O)N1C[C@@H]1N[C@@H]12 [VIII, 9′-Fluorenylmethyl[1aS-(1aα, 8β, 8aα, 8bα)]-[8-[[(aminocarbonyl)oxy]-methyl]-1,1a, 2,8,8a, 8b-hexahydro-4-hydroxy-8a-methoxy-5-methyl-7-oxoazirino[2′, 3′;3,4,]pyrrolo[1,2-a]indol-6(7H)-ylidene]hydrazine carboxylate] | 0.8 | highest efficacy | – | –
CO[C@@]12[C@H](COC(N)=O)C3=C(C(O)=C(C)C(=NNC(=O)OCc4ccccc4)C3=O)N1C[C@@H]1N[C@@H]12 [VII, Phenylmethyl [1aS-(1aα, 8β, 8aα, 8bα)]-[8-[[(aminocarbonyl)-oxy]methyl]-1,1a, 2,8,8a, 8b-hexahydro-4-hydroxy-8a-methoxy-5-methyl-7-oxoazirino[2′, 3′; 3, 4]pyrrolo[1,2-a]indol-6(7H)-ylidene] hydrazinecarboxylate] | 1.6 | highest efficacy | – | –
CO[C@@]12[C@H](COC(N)=O)C3=C(C(O)=C(C)C(=NNC(=O)c4ccccc4)C3=O)N1C[C@@H]1N[C@@H]12 [II, Benzoic acid, [1aS-(1aα, 8β, 8aα, 8bα)]-[8-[[(aminocarbonyl)-oxy]methyl]-1,1a,2,8,8a,8b-hexahydro-4-hydroxy-8a-methoxy-5-methyl-7-oxoazirino[2′,3′,4]pyrrolo[1,2-a]indol-6(7H)-ylidene]hydrazide] | 0.8 | moderately active | – | –
CO[C@@]12[C@H](COC(N)=O)C3=C(C(O)=C(C)C(=NNC(C)=O)C3=O)N1C[C@@H]1N[C@@H]12 [I, Acetic acid, [1aS-(1aα, 8β, 8aα, 8bα)]-[8-[[(aminocarbonyl)oxy]methyl]-1,1a,2,8,8a,8b-hexahydro-4-hydroxy-8a-methoxy-5-methyl-7-oxoazirino [2′,3′;3,4]pyrrolo[1,2-a]indol-6(7H)-ylidene]hydrazide] | 1.6 | pronounced activity | – | –
CO[C@@]12[C@H](COC(N)=O)C3=C(C(=O)C(C)=C(N)C3=O)N1C[C@@H]1N[C@@H]12 [mitomycin C, 7-amino-9α-methoxymitosane, reference compound] | – | – | 1.6 | 1.6[1.6] mg/kg per dose and 0.8[0.8] mg/kg per dose
CCOC(=O)NN=C1C(=O)C2=C(C(O)=C1C)N1C[C@@H]3N[C@@H]3[C@]1(OC)[C@@H]2COC(N)=O [V, Ethyl [1aS-(1aα, 8β, 8aα, 8bα)]-[8-[[(aminocarbonyl)oxy]methyl]-1,1a,2,8,8a,8b-hexahydro-4-hydroxy-8a-methoxy-5-methyl-7-oxoazirino[2′,3′,3,4]pyrrolo[1,2-a]indol-6(7H)-ylidene]hydrazinecarboxylate] | 0.8 | highest efficacy | – | –
CO[C@@]12[C@H](COC(N)=O)C3=C(C(O)=C(C)C(=NNC(=O)c4cccs4)C3=O)N1C[C@@H]1N[C@@H]12 [IV] | 0.8 | moderately active | – | –
